Test results taken from ChEMBL document CHEMBL2086272, “Anticlastogenic effect in human lymphocytes by the sodium salt of 3,4-secoisopimar-4(18),7,15-trien-3-oic acid” (J Nat Prod, 2012).
Calls of active or inactive are those of the source. No cut-off for these calls is given here.

Tests used:
PBL [1] = experiment: (§1) Antimutagenic activity in human PBL assessed as inhibition of colcemid-induced frequency of micronucleus per 1000 binucleated lymphocyte cells at 0.054 uM treated after treatment with colcemid by cytokinesis blocking technique (reference value: 3.33 +/- 0.33 micronucleus frequency/1000 binucleated lymphocyte cells); type: functional
PBL [2] = experiment: Cytotoxicity in human PBL assessed as nuclear division index at 33 uM treated after treatment with ethyl methanesulfonate (reference value: 1.59 +/- 0.08 nuclear division index); type: cell-based
PBL [3] = experiment: as §1, with “ethyl methanesulfonate-induced” for “colcemid-induced”, “1930” for “0.054”, “ethyl methanesulfonate” for “colcemid”; type: functional
PBL [4] = experiment: Cytotoxicity in human PBL assessed as nuclear division index at 3.3 uM pretreated before colcemid (reference value: 1.63 +/- 0.11 nuclear division index); type: cell-based
PBL [5] = experiment: as §1, with “33” for “0.054”, “pretreated before” for “treated after treatment with”, “0.88” for “0.33”; type: functional
PBL [6] = experiment: (§2) Antimutagenic activity in human PBL assessed as inhibition of colcemid-induced frequency of micronucleus per 1000 binucleated lymphocyte cells at 33 uM co-treated with colcemid by cytokinesis blocking technique (reference value: 4.00 +/- 0.41 micronucleus frequency/1000 binucleated lymphocyte cells); type: functional
PBL [7] = experiment: as §1, with “330” for “0.054”, “pretreated before” for “treated after treatment with”, “0.88” for “0.33”; type: functional, cell-based
PBL [8] = experiment: Cytotoxicity in human PBL assessed as nuclear division index at 0.3 uM pretreated before colcemid (reference value: 1.63 +/- 0.11 nuclear division index); type: cell-based
PBL [9] = experiment: as §1, with “3.3” for “0.054”; type: functional
PBL [10] = experiment: as §1, with “330” for “0.054”; type: functional
PBL [11] = experiment: Cytotoxicity in human PBL assessed as nuclear division index at 3.3 uM co-treated with ethyl methanesulfonate (reference value: 1.65 +/- 0.06 nuclear division index); type: cell-based
PBL [12] = experiment: as §2, with “ethyl methanesulfonate-induced” for “colcemid-induced”, “pretreated before ethyl methanesulfonate” for “co-treated with colcemid”, “3.33” for “4.00”, “0.88” for “0.41”; type: functional
PBL [13] = experiment: as §2, with “ethyl methanesulfonate-induced” for “colcemid-induced”, “ethyl methanesulfonate” for “colcemid”; type: functional
PBL [14] = experiment: Cytotoxicity in human PBL assessed as nuclear division index at 33 uM treated after treatment with colcemid (reference value: 1.59 +/- 0.08 nuclear division index); type: cell-based
PBL [15] = experiment: as §2, with “330” for “33”; type: functional
PBL [16] = experiment: Cytotoxicity in human PBL assessed as nuclear division index at 330 uM treated after treatment with colcemid (reference value: 1.59 +/- 0.08 nuclear division index); type: cell-based
PBL [17] = experiment: as §2, with “ethyl methanesulfonate-induced” for “colcemid-induced”, “330” for “33”, “ethyl methanesulfonate” for “colcemid”; type: functional
PBL [18] = experiment: Cytotoxicity in human PBL assessed as nuclear division index at 1930 uM treated after treatment with ethyl methanesulfonate (reference value: 1.59 +/- 0.08 nuclear division index); type: cell-based
PBL [19] = experiment: Cytotoxicity in human PBL assessed as nuclear division index at 330 uM co-treated with colcemid (reference value: 1.65 +/- 0.06 nuclear division index); type: cell-based
PBL [20] = experiment: Cytotoxicity in human PBL assessed as nuclear division index at 0.3 uM treated after treatment with colcemid (reference value: 1.59 +/- 0.08 nuclear division index); type: cell-based
PBL [21] = experiment: Cytotoxicity in human PBL assessed as nuclear division index at 330 uM pretreated before colcemid (reference value: 1.63 +/- 0.11 nuclear division index); type: cell-based
PBL [22] = experiment: Cytotoxicity in human PBL assessed as nuclear division index at 33 uM co-treated with ethyl methanesulfonate (reference value: 1.65 +/- 0.06 nuclear division index); type: cell-based
PBL [23] = experiment: as §2, with “ethyl methanesulfonate-induced” for “colcemid-induced”, “1930” for “33”, “ethyl methanesulfonate” for “colcemid”; type: functional
PBL [24] = experiment: Cytotoxicity in human PBL assessed as nuclear division index at 33 uM pretreated before colcemid (reference value: 1.63 +/- 0.11 nuclear division index); type: cell-based
PBL [25] = experiment: Cytotoxicity in human PBL assessed as nuclear division index at 33 uM pretreated before ethyl methanesulfonate (reference value: 1.63 +/- 0.11 nuclear division index); type: cell-based
PBL [26] = experiment: as §2, with “ethyl methanesulfonate-induced” for “colcemid-induced”, “3.3” for “33”, “ethyl methanesulfonate” for “colcemid”; type: functional
PBL [27] = experiment: as §1, with “ethyl methanesulfonate-induced” for “colcemid-induced”, “330” for “0.054”, “ethyl methanesulfonate” for “colcemid”; type: functional
PBL [28] = experiment: (§3) Antimutagenic activity in human PBL assessed as inhibition of ethyl methanesulfonate-induced frequency of micronucleus per 1000 binucleated lymphocyte cells at 1930 uM pretreated before ethyl methanesulfonate by cytokinesis blocking technique (reference value: 3.33 +/- 0.88 micronucleus frequency/1000 binucleated lymphocyte cells); type: functional
PBL [29] = experiment: Cytotoxicity in human PBL assessed as nuclear division index at 0.054 uM pretreated before colcemid (reference value: 1.63 +/- 0.11 nuclear division index); type: cell-based
PBL [30] = experiment: as §1, with “ethyl methanesulfonate-induced” for “colcemid-induced”, “33” for “0.054”, “ethyl methanesulfonate” for “colcemid”; type: functional
PBL [31] = experiment: as §3, with “colcemid-induced” for “ethyl methanesulfonate-induced”, “0.054” for “1930”, “colcemid” for “ethyl methanesulfonate”; type: functional
PBL [32] = experiment: as §1, with “33” for “0.054”; type: functional
PBL [33] = experiment: Cytotoxicity in human PBL assessed as nuclear division index at 330 uM treated after treatment with ethyl methanesulfonate (reference value: 1.59 +/- 0.08 nuclear division index); type: cell-based
PBL [34] = experiment: as §3, with “3.3” for “1930”; type: functional
PBL [35] = experiment: as §3, with “330” for “1930”; type: functional
PBL [36] = experiment: Cytotoxicity in human PBL assessed as nuclear division index at 330 uM pretreated before ethyl methanesulfonate (reference value: 1.63 +/- 0.11 nuclear division index); type: cell-based
PBL [37] = experiment: Cytotoxicity in human PBL assessed as nuclear division index at 0.054 uM co-treated with colcemid (reference value: 1.65 +/- 0.06 nuclear division index); type: cell-based
PBL [38] = experiment: as §2, with “0.3” for “33”; type: functional
PBL [39] = experiment: Cytotoxicity in human PBL assessed as nuclear division index at 3.3 uM pretreated before ethyl methanesulfonate (reference value: 1.63 +/- 0.11 nuclear division index); type: cell-based
PBL [40] = experiment: Cytotoxicity in human PBL assessed as nuclear division index at 1930 uM co-treated with ethyl methanesulfonate (reference value: 1.65 +/- 0.06 nuclear division index); type: cell-based
PBL [41] = experiment: as §2, with “3.3” for “33”; type: functional
PBL [42] = experiment: as §1, with “0.3” for “0.054”; type: functional
PBL [43] = experiment: as §3, with “0.3” for “1930”; type: functional
PBL [44] = experiment: Genotoxicity in human PBL assessed as micronucleus frequency at 0.3 to 330 uM; type: toxicity, cell-based
PBL [45] = experiment: as §3, with “colcemid-induced” for “ethyl methanesulfonate-induced”, “3.3” for “1930”, “colcemid” for “ethyl methanesulfonate”; type: functional
PBL [46] = experiment: Cytotoxicity in human PBL assessed as nuclear division index at 1930 uM pretreated before ethyl methanesulfonate (reference value: 1.63 +/- 0.11 nuclear division index); type: cell-based
PBL [47] = experiment: Cytotoxicity in human PBL assessed as nuclear division index at 33 uM co-treated with colcemid (reference value: 1.65 +/- 0.06 nuclear division index); type: cell-based
PBL [48] = experiment: Cytotoxicity in human PBL assessed as nuclear division index at 3.3 uM treated after treatment with ethyl methanesulfonate (reference value: 1.59 +/- 0.08 nuclear division index); type: cell-based
PBL [49] = experiment: Cytotoxicity in human PBL assessed as nuclear division index at 0.3 to 330 uM; type: cell-based
PBL [50] = experiment: as §3, with “colcemid-induced” for “ethyl methanesulfonate-induced”, “0.3” for “1930”, “colcemid” for “ethyl methanesulfonate”; type: functional
PBL [51] = experiment: as §2, with “ethyl methanesulfonate-induced” for “colcemid-induced”, “0.3” for “33”, “ethyl methanesulfonate” for “colcemid”; type: functional
PBL [52] = experiment: Cytotoxicity in human PBL assessed as nuclear division index at 0.3 uM pretreated before ethyl methanesulfonate (reference value: 1.63 +/- 0.11 nuclear division index); type: cell-based
PBL [53] = experiment: Cytotoxicity in human PBL assessed as nuclear division index at 3.3 uM treated after treatment with colcemid (reference value: 1.59 +/- 0.08 nuclear division index); type: cell-based
PBL [54] = experiment: as §1, with “ethyl methanesulfonate-induced” for “colcemid-induced”, “0.3” for “0.054”, “ethyl methanesulfonate” for “colcemid”; type: functional
PBL [55] = experiment: Cytotoxicity in human PBL assessed as nuclear division index at 0.3 uM co-treated with ethyl methanesulfonate (reference value: 1.65 +/- 0.06 nuclear division index); type: cell-based
PBL [56] = experiment: Cytotoxicity in human PBL assessed as nuclear division index at 0.3 uM treated after treatment with ethyl methanesulfonate (reference value: 1.59 +/- 0.08 nuclear division index); type: cell-based
PBL [57] = experiment: Cytotoxicity in human PBL assessed as nuclear division index at 3.3 uM co-treated with colcemid (reference value: 1.65 +/- 0.06 nuclear division index); type: cell-based
PBL [58] = experiment: Cytotoxicity in human PBL assessed as nuclear division index at 0.3 uM co-treated with colcemid (reference value: 1.65 +/- 0.06 nuclear division index); type: cell-based
PBL [59] = experiment: as §1, with “ethyl methanesulfonate-induced” for “colcemid-induced”, “3.3” for “0.054”, “ethyl methanesulfonate” for “colcemid”; type: functional
PBL [60] = experiment: Cytotoxicity in human PBL assessed as nuclear division index at 330 uM co-treated with ethyl methanesulfonate (reference value: 1.65 +/- 0.06 nuclear division index); type: cell-based
PBL [61] = experiment: Cytotoxicity in human PBL assessed as nuclear division index at 0.054 uM treated after treatment with colcemid (reference value: 1.59 +/- 0.08 nuclear division index); type: cell-based
PBL [62] = experiment: as §2, with “0.054” for “33”; type: functional

## C=C[C@@]1(C)CC[C@H]2C(=CC[C@@H](C(=C)C)[C@]2(C)CCC(=O)[O-])C1.[Na+]
PBL [1]
  Activity: 12.25
PBL [2]
  Activity: 1.36
PBL [3]
  Activity: 20.14
PBL [4]
  Activity: 1.28
PBL [5]
  Activity: 18
PBL [6]
  Activity: 21
PBL [7]
  Activity: inactive
PBL [8]
  Activity: 1.44
PBL [9]
  Activity: 12.25
PBL [10]
  Activity: 12.5
PBL [11]
  Activity: 1.58
PBL [12]
  Activity: 3.75
PBL [13]
  Activity: 5.5
PBL [14]
  Activity: 1.56
PBL [15]
  Activity: 20.25
PBL [16]
  Activity: 1.56
PBL [17]
  Activity: 4.5
PBL [18]
  Activity: 1.41
PBL [19]
  Activity: 1.41
PBL [20]
  Activity: 1.59
PBL [21]
  Activity: 1.03
PBL [22]
  Activity: 1.53
PBL [23]
  Activity: 15.8
PBL [24]
  Activity: 1.31
PBL [25]
  Activity: 1.42
PBL [26]
  Activity: 6.75
PBL [27]
  Activity: 20
PBL [28]
  Activity: 14
PBL [29]
  Activity: 1.52
PBL [30]
  Activity: 19.5
PBL [31]
  Activity: 22.75
PBL [32]
  Activity: 11.75
PBL [33]
  Activity: 1.31
PBL [34]
  Activity: 5.75
PBL [35]
  Activity: 4
PBL [36]
  Activity: 1.28
PBL [37]
  Activity: 1.39
PBL [38]
  Activity: 21.5
PBL [39]
  Activity: 1.49
PBL [40]
  Activity: 1.55
PBL [41]
  Activity: 21.25
PBL [42]
  Activity: 11.25
PBL [43]
  Activity: 5.5
PBL [44]
  Activity: Non-toxic
PBL [45]
  Activity: 18.42
PBL [46]
  Activity: 1.53
PBL [47]
  Activity: 1.51
PBL [48]
  Activity: 1.36
PBL [49]
  Activity: Non-toxic
PBL [50]
  Activity: 19.25
PBL [51]
  Activity: 4
PBL [52]
  Activity: 1.46
PBL [53]
  Activity: 1.58
PBL [54]
  Activity: 19.25
PBL [55]
  Activity: 1.38
PBL [56]
  Activity: 1.43
PBL [57]
  Activity: 1.42
PBL [58]
  Activity: 1.37
PBL [59]
  Activity: 19.75
PBL [60]
  Activity: 1.63
PBL [61]
  Activity: 1.65
PBL [62]
  Activity: 24.78
